Target: T1, Regulator of G-protein signaling 8 (Homo sapiens, UniProt P57771)
T1 sequence (P57771 whole entry): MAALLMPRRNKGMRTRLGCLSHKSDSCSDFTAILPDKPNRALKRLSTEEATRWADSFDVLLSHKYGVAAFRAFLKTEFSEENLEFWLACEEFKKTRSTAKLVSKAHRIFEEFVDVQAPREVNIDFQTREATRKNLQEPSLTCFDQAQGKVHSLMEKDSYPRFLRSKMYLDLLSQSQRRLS
Experiment: RGS8-Galphao interaction modulators, SAR follow-up, biochemical, multiplex bead flow cytometry, SAR compounds (AID 2307)

| SMILES | EC50 | EC50 (inactive by the depositor's call) |
| --- | --- | --- |
| CN1CCN(C2=C(Cl)C(=O)C(c3cnc(N4CCCCC4)s3)=C(Cl)C2=O)CC1 | 21 nM | – |
| CCN=c1scc(C)n1N=Cc1ccc(O)c(O)c1O | 573 nM | – |
| CCN(CC)S(=O)(=O)c1cccc(C(=O)NN=Cc2ccc(O)c(O)c2O)c1 | 411 nM | – |
| Cc1[nH]n(-c2ccccc2)c(=S)c1C=NCCCN=Cc1c(C)[nH]n(-c2ccccc2)c1=S | 522 nM | – |
| Cc1cccc(N2CCN(C(=O)COc3nsc4nc(C)cc(C)c34)CC2C)c1 (configuration not stated) | 3180 nM | – |
| Cc1cccc(N2CCN(C(=O)Cn3ccc4nc(C)cc(C)c4c3=O)CC2C)c1 (configuration not stated) [2,4-dimethyl-6-[2-[3-methyl-4-(3-methylphenyl)piperazin-1-yl]-2-oxidanylidene-ethyl]-1,6-naphthyridin-5-one] | > 30000 nM | – |
| Cc1cc(C)c2c(=O)n(CC(=O)N3CCN(c4ccccc4)CC3)ccc2n1 [2,4-dimethyl-6-[2-oxidanylidene-2-(4-phenylpiperazin-1-yl)ethyl]-1,6-naphthyridin-5-one] | > 30000 nM | – |
| Cc1cc(C)c2c(n1)CCN(CC(=O)N1CCN(c3ccccc3)CC1)C2=O [2,4-dimethyl-6-[2-oxidanylidene-2-(4-phenylpiperazin-1-yl)ethyl]-7,8-dihydro-1,6-naphthyridin-5-one] | > 30000 nM | – |
| O=c1c2ccccc2sn1-c1ccc(S(=O)(=O)N2CCCC2)cc1 [2-(4-pyrrolidin-1-ylsulfonylphenyl)-1,2-benzothiazol-3-one] | 29 nM | – |
| Cc1cccc(N2CCN(C(=O)Cn3sc4nc(C)cc(C)c4c3=O)CC2C)c1 (configuration not stated) [2-[2-keto-2-[3-methyl-4-(m-tolyl)piperazino]ethyl]-4,6-dimethyl-isothiazolo[5,4-b]pyridin-3-one] | 550 nM | – |
| Cc1cccc(N2CCN(C(=O)COc3noc4nc(C)cc(C)c34)CC2C)c1 (configuration not stated) [2-[(4,6-dimethyl-[1,2]oxazolo[5,4-b]pyridin-3-yl)oxy]-1-[3-methyl-4-(3-methylphenyl)piperazin-1-yl]ethanone] | > 30000 nM | – |
| O=c1c2ccccc2sn1-c1ccccc1 [2-phenyl-1,2-benzothiazol-3-one] | > 30000 nM | – |
| CCN(CC)S(=O)(=O)c1cccc(-c2n[nH]c(=S)n2N=Cc2ccc(C(=O)OC)cc2)c1 [4-[(E)-[3-[3-(diethylsulfamoyl)phenyl]-5-thioxo-1H-1,2,4-triazol-4-yl]iminomethyl]benzoic acid methyl ester] | 3130 nM | – |
| NS(=O)(=O)c1ccc(N=NCc2ccc(O)c(O)c2O)c([N+](=O)[O-])c1 [4-[[(E)-(2,3-dihydroxy-4-oxo-1-cyclohexa-2,5-dienylidene)methyl]hydrazo]-3-nitrobenzenesulfonamide] | 29 nM | – |
| CN=c1scc(C)n1N=Cc1ccc(O)c(O)c1O [(4E)-2,3-dihydroxy-4-[[(4-methyl-2-methylimino-1,3-thiazol-3-yl)amino]methylidene]cyclohexa-2,5-dien-1-one] | 318 nM | – |
| Cc1[nH]n(-c2ccccc2)c(=S)c1/C=N/c1cccc([N+](=O)[O-])c1 [(4E)-5-methyl-4-[(3-nitroanilino)methylene]-2-phenyl-2-pyrazoline-3-thione] | 218 nM | – |
| Cc1cccc(N2CCN(C(=O)CN3CCc4nc(C)cc(C)c4C3=O)CC2C)c1 (configuration not stated) [KUC103675N] | > 30000 nM | – |
| CC(=O)OCCCNc1cc(Sc2nc3ccccc3s2)c2nonc2c1[N+](=O)[O-] [MLS000521052] | 86 nM | – |
| Cc1cc(Cl)ccc1/N=c1/ssnc1Cl [MLS000539990] | 127 nM | – |
| O=C1C(Cl)=C(N2CCCCC2)C(=O)C(Cl)=C1c1cnc(N2CCCCC2)s1 [MLS000550549] | 78 nM | – |
| CCC(=O)NC(c1ccc(C)cc1)c1cc([N+](=O)[O-])c2cccnc2c1O (configuration not stated) [MLS000553854] | 4340 nM | – |
| CCOc1ccccc1-c1c2cc(O)c(=O)cc-2oc2cc(O)c(O)cc12 [MLS000578271] | – | 3680 nM |
| COc1ccc(C2=CC(=O)C=CC2=O)cc1 [MLS001029846] | 177 nM | – |
| O=C(COc1ccccc1C(=O)NN=Cc1ccc(O)c(O)c1)NN=Cc1ccc(O)c(O)c1 [N''-[(Z)-(3-hydroxy-4-oxo-1-cyclohexa-2,5-dienylidene)methyl]-2-[2-[[(Z)-(3-hydroxy-4-oxo-1-cyclohexa-2,5-dienylidene)methyl]hydrazo]-2-oxoethoxy]benzohydrazide] | 123 nM | – |
| CC1(C)OC(=O)C(=Cc2ccc(-c3ccc(S(N)(=O)=O)cc3)o2)C(=O)O1 [SMR000273939] | 701 nM | – |
| O=C(Cc1csc(N2CCOCC2)n1)NN=Cc1ccc(O)c(O)c1O [SMR000369439] | 384 nM | – |
| Nc1c(C(=O)NCC2CCCO2)sc2nc3c(c(-c4ccco4)c12)CC/C3=C/c1ccco1 (configuration not stated) [UNM-0000305796] | 489 nM | – |

Source: BindingDB's records for doi:10.7270/Q2M043TQ (Nmmlsc, 2010)
